Columns and labels:
Assay in all cases: relative viability (nuclei count vs DMSO), 5 days (fraction); higher = more cells survive
[1] = compound: CN1CCN(CC1)C2=CC(=C(C=C2)NC3=NC(=C(S3)C(=O)C4=C(C=CC=C4Cl)Cl)N)OC [XMD14-99] + CCNC(=O)c1noc(-c2cc(C(C)C)c(O)cc2O)c1-c1ccc(CN2CCOCC2)cc1 [Luminespib] (partner 0.01 µM)
Method in brief: (§1)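 Relative viability divides the nuclei count in treated wells by that in vehicle wells. Lung cancer cell lines were seeded in 1536-well plates, dosed by pin tool the next day, and fixed and stained after 5 days in one step with final 0.05% Triton X-100, 1% formaldehyde and 1 ug/ml Hoechst. Dosing was a single drug or a fixed anchor-drug dose plus five library-drug doses (not always all listed) in √10 steps, and values are medians of duplicate plates imaged at 4×.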

[2] = compound: CN1CCN(CC1)C2=CC(=C(C=C2)NC3=NC(=C(S3)C(=O)C4=C(C=CC=C4Cl)Cl)N)OC [XMD14-99] + O=C(c1cc(Cc2n[nH]c(=O)c3ccccc23)ccc1F)N1CCN(C(=O)C2CC2)CC1 [Olaparib] (partner 8 µM)
Method in brief: as §1

[3] = compound: N[C@@H]1CCCN(c2c(/C=C3\SC(=O)NC3=O)cccc2-c2ccccc2)C1 [AZD1208] + CS(=O)(=O)N1CCN(Cc2cc3nc(-c4cccc5[nH]ncc45)nc(N4CCOCC4)c3s2)CC1 [Pictilisib] (partner 1 µM)
Method in brief: as §1

[4] = compound: N[C@@H]1CCCN(c2c(/C=C3\SC(=O)NC3=O)cccc2-c2ccccc2)C1 [AZD1208] + NC(=O)Nc1cc(-c2cccc(F)c2)sc1C(=O)N[C@H]1CCCNC1 [AZD7762] (partner 0.2 µM)
Method in brief: as §1

Cell Line | relative viability ([1]; first compound 0.08 µM) | relative viability ([1]; first compound 0.8 µM) | relative viability ([1]; first compound 2.53 µM) | relative viability ([1]; first compound 8 µM) | relative viability ([2]; first compound 0.08 µM) | relative viability ([2]; first compound 0.8 µM) | relative viability ([2]; first compound 2.53 µM) | relative viability ([2]; first compound 8 µM) | relative viability ([3]; first compound 0.08 µM) | relative viability ([3]; first compound 0.253 µM) | relative viability ([3]; first compound 0.8 µM) | relative viability ([3]; first compound 2.53 µM) | relative viability ([3]; first compound 8 µM) | relative viability ([4]; first compound 0.08 µM) | relative viability ([4]; first compound 0.253 µM) | relative viability ([4]; first compound 0.8 µM) | relative viability ([4]; first compound 2.53 µM) | relative viability ([4]; first compound 8 µM)
NCI-H2126 | 0.966 | 0.827 | 0.873 | 0.595 | 0.96 | 0.87 | 0.736 | 0.759 | 0.437 | 0.476 | 0.436 | 0.424 | 0.441 | 1.03 | 1.08 | 1.02 | 0.996 | 0.928
LC-2-ad | 1.04 | 0.984 | 0.824 | 0.582 | 0.687 | 0.707 | 0.628 | 0.498 | 0.397 | 0.446 | 0.405 | 0.357 | 0.417 | 0.842 | 0.888 | 0.798 | 0.804 | 0.897
NCI-H1915 | 0.745 | 0.72 | 0.754 | 0.61 | 0.239 | 0.246 | 0.268 | 0.234 | 0.874 | 0.899 | 0.832 | 0.849 | 0.84 | 0.642 | 0.76 | 0.766 | 0.778 | 0.673
NCI-H1793 | 0.232 | 0.184 | 0.499 | 0.25 | 0.818 | 0.915 | 0.782 | 0.622 | 0.362 | 0.212 | 0.257 | 0.385 | 0.276 | 0.599 | 0.611 | 0.403 | 0.482 | 0.401
NCI-H2085 | 0.429 | 0.41 | 0.377 | 0.368 | 0.773 | 0.694 | 0.718 | 0.605 | 0.418 | 0.459 | 0.36 | 0.43 | 0.564 | 1 | 1.13 | 0.911 | 0.892 | 1.04
LXF-289 | 0.586 | 0.672 | 0.639 | 0.634 | 1.06 | 1.01 | 1.11 | 0.931 | 0.706 | 0.724 | 0.73 | 0.699 | 0.724 | 1.13 | 1.27 | 1.19 | 1.22 | 1.38
PC-3 [JPC-3] | 0.682 | 0.66 | 0.564 | 0.588 | 1.09 | 1.1 | 1.16 | 0.733 | 0.788 | 0.762 | 0.672 | 0.659 | 0.684 | 1.03 | 0.89 | 0.692 | 0.793 | 0.823
NCI-H1666 | 1.05 | 0.936 | 0.949 | 0.88 | 0.81 | 0.73 | 0.737 | 0.763 | 0.359 | 0.553 | 0.353 | 0.309 | 0.374 | 0.953 | 0.888 | 0.762 | 0.856 | 0.937
NCI-H2087 | 0.151 | 0.173 | 0.179 | 0.135 | 0.506 | 0.476 | 0.515 | 0.382 | 0.665 | 0.842 | 0.654 | 0.561 | 0.732 | 1.29 | 1.45 | 1.35 | 1.46 | 1.32
NCI-H1734 | 0.175 | 0.179 | 0.172 | 0.185 | 0.605 | 0.581 | 0.595 | 0.385 | 0.393 | 0.373 | 0.347 | 0.343 | 0.293 | 0.499 | 0.543 | 0.469 | 0.465 | 0.425
EMC-BAC-2 | 1.19 | 1.13 | 0.99 | 1.01 | 0.507 | 0.483 | 0.443 | 0.422 | 0.537 | 0.528 | 0.463 | 0.474 | 0.47 | 1.21 | 1.13 | 0.866 | 1.03 | 0.875
NCI-H596 | 1.05 | 1.11 | 0.917 | 0.983 | 0.815 | 0.725 | 0.646 | 0.665 | 0.388 | 0.349 | 0.366 | 0.348 | 0.328 | 1.17 | 1.07 | 1.01 | 1.01 | 0.666
NCI-H650 | 0.733 | 0.873 | 0.79 | 0.722 | 0.39 | 0.355 | 0.338 | 0.327 | 0.83 | 0.783 | 0.793 | 0.589 | 0.589 | 1.05 | 1.09 | 0.795 | 0.833 | 0.871
NCI-H1792 | 0.543 | 0.456 | 0.354 | 0.326 | 0.486 | 0.383 | 0.265 | 0.0886 | 0.255 | 0.272 | 0.258 | 0.218 | 0.199 | 0.815 | 0.739 |  | 0.593 | 0.56
ChaGo-K-1 | 0.565 | 0.599 | 0.609 | 0.513 | 0.473 | 0.438 | 0.403 | 0.292 | 0.979 | 0.698 | 0.644 | 0.537 | 0.484 | 0.849 | 0.931 | 0.813 | 0.952 | 0.776
LOU-NH91 | 0.443 | 0.325 | 0.294 | 0.3 | 0.904 | 0.919 | 0.891 | 0.692 | 0.503 | 0.485 | 0.503 | 0.494 | 0.517 | 0.74 | 0.714 | 0.71 | 0.684 | 0.667
NCI-H3122 | 0.0829 | 0.0788 | 0.132 | 0.0985 | 0.671 | 0.682 | 0.62 | 0.441 | 0.506 | 0.486 | 0.447 | 0.481 | 0.524 | 1.07 | 1.04 | 0.952 | 1.08 | 0.894
